Source: patent US8513221B2, “PI3K isoform selective inhibitors” (Xcovery Holding, LLC, priority 2008, dated 2013)
Like-named read-outs stand apart in the source and are kept apart here.

Experiments:
PI3Kδ = target: T1, PI3Kδ (Homo sapiens, UniProt O00329); assay: Ambit Biosciences kinase competition binding assay, PI3Kδ
T1 construct: purchased Ambit Biosciences (San Diego, Calif., USA); host or cells: T7 phage in BL21-derived E. coli, or HEK-293
T1 sequence (O00329 1-1044): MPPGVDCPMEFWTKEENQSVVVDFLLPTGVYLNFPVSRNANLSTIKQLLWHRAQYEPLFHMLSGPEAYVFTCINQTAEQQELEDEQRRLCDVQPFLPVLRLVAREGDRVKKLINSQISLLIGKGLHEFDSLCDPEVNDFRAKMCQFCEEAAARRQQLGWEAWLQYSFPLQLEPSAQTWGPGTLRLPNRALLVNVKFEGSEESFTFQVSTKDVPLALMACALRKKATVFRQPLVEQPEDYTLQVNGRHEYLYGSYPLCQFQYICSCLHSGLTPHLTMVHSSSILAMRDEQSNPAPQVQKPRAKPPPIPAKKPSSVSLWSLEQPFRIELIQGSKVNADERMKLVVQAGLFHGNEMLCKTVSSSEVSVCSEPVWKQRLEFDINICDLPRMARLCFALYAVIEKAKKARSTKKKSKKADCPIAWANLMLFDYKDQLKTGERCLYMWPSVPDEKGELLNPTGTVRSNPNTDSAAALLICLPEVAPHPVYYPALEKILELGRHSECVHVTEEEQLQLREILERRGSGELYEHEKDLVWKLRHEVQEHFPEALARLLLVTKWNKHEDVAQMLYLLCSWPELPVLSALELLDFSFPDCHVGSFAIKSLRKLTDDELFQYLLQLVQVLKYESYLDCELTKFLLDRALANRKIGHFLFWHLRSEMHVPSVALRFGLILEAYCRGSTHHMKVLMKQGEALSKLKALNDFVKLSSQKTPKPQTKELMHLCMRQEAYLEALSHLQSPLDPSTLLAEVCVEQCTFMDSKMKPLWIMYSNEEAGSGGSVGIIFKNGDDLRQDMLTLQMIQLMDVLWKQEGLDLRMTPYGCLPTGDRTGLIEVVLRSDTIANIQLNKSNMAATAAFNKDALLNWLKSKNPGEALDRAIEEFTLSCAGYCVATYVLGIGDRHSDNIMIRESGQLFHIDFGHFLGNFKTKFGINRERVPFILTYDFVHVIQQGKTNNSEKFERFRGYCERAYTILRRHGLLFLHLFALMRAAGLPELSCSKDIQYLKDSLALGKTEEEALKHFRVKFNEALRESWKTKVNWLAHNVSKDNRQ
Protocol: Kinase assays. For most assays, kinase-tagged T7 phage strains were grown in parallel in 24-well blocks in an E. coli host derived from the BL21 strain. E. coli were grown to log-phase and infected with T7 phage from a frozen stock (multiplicity of infection ˜0.1) and incubated with shaking at 32° C. until lysis (˜90 minutes). The lysates were centrifuged (6,000×g) and filtered ([…]) to remove cell debris. The remaining kinases were produced in HEK-293 cells and subsequently tagged with DNA for qPCR detection. […] The liganded beads were blocked with excess biotin and washed with blocking buffer (SeaBlock (Pierce), 1% BSA, 0.05% Tween 20, 1 mM DTT) to remove unbound ligand and to reduce non-specific phage binding. […] Test compounds were prepared as 40× stocks in 100% DMSO and directly diluted into the assay. All reactions were performed in polypropylene 384-well plates in a final volume of 0.04 ml. […] The kinase concentration in the eluates was measured by qPCR.
Compounds were tested using the above assay at Ambit Biosciences (San Diego, Calif., USA).

PI3Kα = target: T2, PI3Kα (Homo sapiens, UniProt P42336); assay: Ambit Biosciences kinase competition binding assay, PI3Kα; settings: read-out: inhibitory activity against other isoforms: PI3Kα
T2 construct: purchased Ambit Biosciences (San Diego, Calif., USA); host or cells: T7 phage in BL21-derived E. coli, or HEK-293
Protocol: (§1) Assays were performed as described in Fabian et al. (2005) Nature Biotechnology, vol. 23, p. 329 and in Karaman et al. (2008) Nature Biotechnology, vol. 26, p. 127.
(§2) Kinase assays. For most assays, kinase-tagged T7 phage strains were grown in parallel in 24-well blocks in an E. coli host derived from the BL21 strain. E. coli were grown to log-phase and infected with T7 phage from a frozen stock (multiplicity of infection ˜0.1) and incubated with shaking at 32° C. until lysis (˜90 minutes). The lysates were centrifuged (6,000×g) and filtered ([…]) to remove cell debris. The remaining kinases were produced in HEK-293 cells and subsequently tagged with DNA for qPCR detection. Streptavidin-coated magnetic beads were treated with biotinylated small molecule ligands for 30 minutes at room temperature to generate affinity resins for kinase assays. The liganded beads were blocked with excess biotin and washed with blocking buffer (SeaBlock (Pierce), 1% BSA, 0.05% Tween 20, 1 mM DTT) to remove unbound ligand and to reduce non-specific phage binding. Binding reactions were assembled by combining kinases, liganded affinity beads, and test compounds in 1× binding buffer (20% SeaBlock, 0.17× PBS, 0.05% Tween 20, 6 mM DTT). Test compounds were prepared as 40× stocks in 100% DMSO and directly diluted into the assay. […] The kinase concentration in the eluates was measured by qPCR. […]

PI3Kβ = target: T3, PI3Kβ (Homo sapiens, UniProt P42338); assay: Ambit Biosciences kinase competition binding assay, PI3Kβ; settings: read-out: inhibitory activity against other isoforms: PI3Kβ
T3 construct: purchased Ambit Biosciences (San Diego, Calif., USA); host or cells: T7 phage in BL21-derived E. coli, or HEK-293
Protocol: as §1, §2

PI3Kγ = target: T4, PI3Kγ (Homo sapiens, UniProt P48736); assay: Ambit Biosciences kinase competition binding assay, PI3Kγ; settings: read-out: inhibitory activity against other isoforms: PI3Kγ
T4 construct: purchased Ambit Biosciences (San Diego, Calif., USA); host or cells: T7 phage in BL21-derived E. coli, or HEK-293
Protocol: as §1, §2

mTor = target: T5, mTor (Homo sapiens, UniProt P42345); assay: Z′-LYTE biochemical assay for mTor; settings: at up to 1 μM
T5 construct: purchased Invitrogen Corp. (Madison, Wis., USA)
Protocol: The Z′-LYTE® biochemical assay for mTor The mTor kinase activity was assessed using the Z′-LYTE® biochemical assay of Invitrogen Corp. (Madison, Wis., USA).

T2 sequence (P42336 whole entry, canonical isoform): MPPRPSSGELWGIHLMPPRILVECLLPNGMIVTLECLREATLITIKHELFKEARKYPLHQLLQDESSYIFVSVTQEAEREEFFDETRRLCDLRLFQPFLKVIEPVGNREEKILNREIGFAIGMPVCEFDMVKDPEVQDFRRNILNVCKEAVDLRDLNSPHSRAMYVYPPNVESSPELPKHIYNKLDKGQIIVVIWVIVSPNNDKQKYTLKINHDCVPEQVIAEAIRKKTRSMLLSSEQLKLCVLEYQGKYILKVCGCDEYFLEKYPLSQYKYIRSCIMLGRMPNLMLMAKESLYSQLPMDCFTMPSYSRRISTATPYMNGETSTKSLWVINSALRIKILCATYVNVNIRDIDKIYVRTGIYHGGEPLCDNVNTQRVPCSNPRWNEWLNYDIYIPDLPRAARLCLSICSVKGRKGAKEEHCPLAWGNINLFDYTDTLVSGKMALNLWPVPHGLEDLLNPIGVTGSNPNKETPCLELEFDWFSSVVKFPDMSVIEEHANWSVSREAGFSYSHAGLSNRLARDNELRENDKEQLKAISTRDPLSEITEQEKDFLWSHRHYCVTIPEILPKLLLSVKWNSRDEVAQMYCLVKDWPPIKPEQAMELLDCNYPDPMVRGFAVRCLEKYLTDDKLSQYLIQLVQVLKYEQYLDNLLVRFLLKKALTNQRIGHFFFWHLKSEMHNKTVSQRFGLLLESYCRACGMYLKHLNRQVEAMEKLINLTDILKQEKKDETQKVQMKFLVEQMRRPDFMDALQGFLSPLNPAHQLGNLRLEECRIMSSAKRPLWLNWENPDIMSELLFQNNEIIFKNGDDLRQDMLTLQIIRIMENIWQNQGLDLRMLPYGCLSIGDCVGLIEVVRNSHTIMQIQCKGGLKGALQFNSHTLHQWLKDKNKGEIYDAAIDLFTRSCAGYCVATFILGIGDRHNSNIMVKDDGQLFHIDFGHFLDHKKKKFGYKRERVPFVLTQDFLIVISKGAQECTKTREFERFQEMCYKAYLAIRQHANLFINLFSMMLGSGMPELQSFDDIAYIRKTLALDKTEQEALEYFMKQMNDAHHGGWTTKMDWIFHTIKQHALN
T3 sequence (P42338 whole entry, canonical isoform): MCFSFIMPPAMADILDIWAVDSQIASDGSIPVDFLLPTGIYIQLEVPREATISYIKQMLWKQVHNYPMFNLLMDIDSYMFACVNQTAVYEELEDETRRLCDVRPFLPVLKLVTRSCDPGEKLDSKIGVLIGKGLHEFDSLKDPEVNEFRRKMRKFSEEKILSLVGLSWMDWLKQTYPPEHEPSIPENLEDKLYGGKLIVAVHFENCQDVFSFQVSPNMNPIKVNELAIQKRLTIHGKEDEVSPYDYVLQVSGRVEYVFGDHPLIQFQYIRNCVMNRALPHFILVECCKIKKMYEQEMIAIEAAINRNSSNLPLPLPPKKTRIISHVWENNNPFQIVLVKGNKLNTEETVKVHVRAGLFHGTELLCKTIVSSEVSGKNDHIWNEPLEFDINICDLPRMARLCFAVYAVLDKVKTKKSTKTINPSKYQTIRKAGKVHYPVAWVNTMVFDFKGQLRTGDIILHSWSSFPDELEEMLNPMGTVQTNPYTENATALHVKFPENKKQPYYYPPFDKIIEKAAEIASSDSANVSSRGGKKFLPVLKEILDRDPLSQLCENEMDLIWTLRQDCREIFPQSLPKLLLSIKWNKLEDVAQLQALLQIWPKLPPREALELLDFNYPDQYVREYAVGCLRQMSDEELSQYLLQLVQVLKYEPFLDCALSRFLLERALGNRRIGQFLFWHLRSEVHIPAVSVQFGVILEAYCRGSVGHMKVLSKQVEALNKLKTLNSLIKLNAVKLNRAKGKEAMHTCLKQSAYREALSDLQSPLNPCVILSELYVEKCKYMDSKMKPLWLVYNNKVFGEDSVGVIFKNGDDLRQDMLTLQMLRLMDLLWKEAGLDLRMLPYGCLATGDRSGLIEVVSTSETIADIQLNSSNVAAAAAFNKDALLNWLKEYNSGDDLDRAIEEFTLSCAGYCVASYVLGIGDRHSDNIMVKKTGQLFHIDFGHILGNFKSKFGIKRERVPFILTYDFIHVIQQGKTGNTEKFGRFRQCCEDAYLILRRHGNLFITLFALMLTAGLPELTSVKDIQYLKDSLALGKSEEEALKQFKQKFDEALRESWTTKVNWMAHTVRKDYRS
T4 sequence (P48736 whole entry, canonical isoform): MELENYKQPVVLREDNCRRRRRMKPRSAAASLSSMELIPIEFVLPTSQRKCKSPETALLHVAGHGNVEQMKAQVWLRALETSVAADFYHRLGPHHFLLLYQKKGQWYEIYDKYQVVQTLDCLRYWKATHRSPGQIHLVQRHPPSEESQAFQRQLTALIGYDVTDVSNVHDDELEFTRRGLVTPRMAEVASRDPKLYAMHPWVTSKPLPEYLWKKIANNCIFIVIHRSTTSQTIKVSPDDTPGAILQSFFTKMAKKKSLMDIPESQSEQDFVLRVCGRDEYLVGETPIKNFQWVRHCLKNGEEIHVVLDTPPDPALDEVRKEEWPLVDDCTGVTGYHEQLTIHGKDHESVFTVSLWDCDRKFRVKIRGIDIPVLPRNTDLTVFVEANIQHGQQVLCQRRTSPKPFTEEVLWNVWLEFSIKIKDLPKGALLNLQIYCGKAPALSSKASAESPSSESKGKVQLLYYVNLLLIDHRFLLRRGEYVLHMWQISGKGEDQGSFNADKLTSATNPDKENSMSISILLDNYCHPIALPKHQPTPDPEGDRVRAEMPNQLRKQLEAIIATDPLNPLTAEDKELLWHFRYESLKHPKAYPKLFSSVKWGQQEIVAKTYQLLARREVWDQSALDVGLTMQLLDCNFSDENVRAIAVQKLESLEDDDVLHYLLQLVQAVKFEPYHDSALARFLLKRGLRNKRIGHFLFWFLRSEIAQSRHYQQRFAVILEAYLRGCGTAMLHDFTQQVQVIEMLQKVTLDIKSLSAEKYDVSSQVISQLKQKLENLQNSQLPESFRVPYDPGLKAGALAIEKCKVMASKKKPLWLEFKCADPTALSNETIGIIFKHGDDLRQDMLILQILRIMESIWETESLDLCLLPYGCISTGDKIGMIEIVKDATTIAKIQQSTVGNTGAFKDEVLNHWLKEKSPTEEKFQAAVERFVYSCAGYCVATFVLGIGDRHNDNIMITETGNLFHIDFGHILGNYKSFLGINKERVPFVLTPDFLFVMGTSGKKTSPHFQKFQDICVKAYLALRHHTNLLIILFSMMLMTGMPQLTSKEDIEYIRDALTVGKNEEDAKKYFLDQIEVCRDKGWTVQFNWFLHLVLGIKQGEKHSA

Compound	IC50 (PI3Kδ; read-out: inhibition against PI3Kδ (IC50))	IC50 (PI3Kα)	IC50 (PI3Kβ)	IC50 (PI3Kγ)	IC50 (PI3Kδ)	mTor kinase inhibition (mTor)
CS(=O)(=O)N1CCN(CCn2cnc3c(-n4c(C(F)F)nc5ccccc54)nc(N4CCOCC4)nc32)CC1 [Example 14, 6-(2-difluoromethyl-benzoimidazol-1-yl)-9-[2-(4-methanesulfonyl-piperazin-1-yl)-ethyl]-2-morpholin-4-yl-9H-purine]	< 30 nM	> 100 nM	> 100 nM	> 100 nM		
OCCn1cnc2c(-n3c(C(F)F)nc4ccccc43)nc(N3CCOCC3)nc21 [Example 28, 2-{6-[2-(difluoromethyl)benzimidazol-1-yl]-2-morpholin-4-ylpurin-9-yl}ethan-1-ol]		> 100 nM	> 100 nM	> 100 nM	< 30 nM	did not significantly inhibit
